Reference: US7115657B2, “Bifunctional agents possessing antioxidant and antiarrhythmic activity” (Uni-Pharma Kleon Tsetis Pharmaceutical Laboratories S.A., priority 2000, dated 2006)

How the values were obtained:
[1] = system: microsomal lipid peroxidation; assay: in vitro lipid peroxidation, heat-inactivated hepatic microsomal fraction, Fe2+/ascorbate, TBA reactive material; format: biochemical, Fischer rats
Procedure: The antioxidant activity of the new compounds was initially evaluated as set forth below. in vitro lipid peroxidation (Bationi J. P., Fontecave M., Jaouen M., Mansuy D. “Vitamin E derivatives as new potent inhibitors of microsomal lipid peroxidation” Biochem. Biophys. Res. Com. 1991, 174, 1103)
For these experiments, heat-inactivated hepatic microsomal fraction from untreated Fischer rats (200–220 g), corresponding to 0.125 g liver/ml final volume, was used. The incubation mixture contained the microsomal fraction, ascorbic acid (0.2 mM), in Tris buffer (50 mM, pH 7.4) and various concentrations (5 μM–1 mM) of the examined compounds dissolved in DMSO. The lipid peroxidation reaction was initiated with the addition of a freshly prepared FeSO4 solution (10 μM) and aliquots were taken at various time intervals for 45 min. Lipid peroxidation was estimated spectroscopically (535 nm vs. 600 nm) as 2-thiobarbitouric acid (TBA) reactive material. Each experiment was performed at least in triplicate.
The effect of various concentrations of representative compounds of the present invention on lipid peroxidation is shown in Table 1. […] However, there are quantitative differences that appear to be connected with the position of the amide substituent and the length of the side chain.

[2] = system: isolated heart preparations; assay: antiarrhythmic activity on isolated heart preparations, Krebs perfused Langerdorff model of ischemia and reperfusion; parameters: species or system Male Wistar rats; unit not given here; details: drug present during last 5 min of ischemia and during reperfusion, control (no drug) 12 ± 4
Procedure: The evaluation of the antiarrhythmic activity of the compounds set forth above was carried out on isolated heart preparations using the Krebs perfused Langerdorff model (Heisier B. E., Ferrier G. R. “Proarrhythmic actions of flecainide in an isolated tissue model of ischemia and reperfusion” J. Pharmacol. Exp. Ther. 1996, 279, 317). Male Wistar rats, 250–300 g, were anesthetized with pentobarbitone (15 mg/rat=5 mg/100 g body weight) and heparinized (1000 IU)
Hearts were excised and washed in ice cold modified Krebs-Henseleit (KHB) buffer of the following composition in Mm: NaCl 118, KCl 4.7, NaHCO3 25, KH2PO4 1.2, MgSO4 1.4, CaCl2 2.5, Glucose 11. Hearts were mounted on a Langerdorff apparatus, perfused at a pressure 100 mmHg, at 37° C., with KHB (9 ml/min) for 30–40 min and then the “ischemic” KHB solution was applied for 15 min (this solution is a KH buffer in which the glucose is substituted by Tris HCl. The hearts were then perfused with normal KHB for 30 min. Drugs were present during the last 5 min of ischemia and during reperfusion at the final concentration of 30 or 100 μM.
Electrocardiograms were recorded during equilibration, ischemia and reperfusion.
The most important arrhythmias seem to occur during early reperfusion (Li G-R., Ferrier G. R. “Effects of lidocaine on reperfusion arrhythmias and electrophysiological properties in an isolated ventricular muscle model of ischemia and reperfusion” J. Pharmacol. Exp. Ther. 1991, 257, 997).

Row | Molecule | % Inhibition ([1]; compound concentration 10 μM) [%] | % Inhibition ([1]; compound concentration 50 μM) [%] | other results
1 | CCN(CC)CCNC(=O)C1(C)CCc2c(C)c(O)c(C)c(C)c2O1 (stereo not shown) [Compound a, N-(3,4-dihydro-6-hydroxy-2,5,7,8-tetramethyl-2H-1-benzopyran-2-carbonyl)-N′,N′-diethyl Ethylenediamine] | 96.3 | – | Incidence of arrhythmias during the reperfusion period ([2]; 30 μM): 7 ± 3.5; Incidence of arrhythmias during the reperfusion period ([2]; 100 μM): 5 ± 2
2 | Cc1c(C)c2c(c(C)c1O)CCC(C)(C(=O)O)O2 (stereo not shown) [Trolox, reference compound] | 49 | – | –
3 | CCCCCCC1(C(=O)NCCN(CC)CC)CCc2c(C)c(O)c(C)c(C)c2O1 (stereo not shown) [b, N-(3,4-dihydro-2-hexyl-6-hydroxy-5,7,8-trimethyl-2H-1-benzopyran-2-carbonyl)-N′,N′-diethyl Ethylenediamine] | 7.7 | 91 | –
4 | CCCCCCCCCCCCC1(C(=O)NCCN(CC)CC)CCc2c(C)c(O)c(C)c(C)c2O1 (stereo not shown) [c, N-(3,4-dihydro-2-dodecyl-6-hydroxy-5,7,8-trimethyl-2H-1-benzopyran-2-carbonyl)-N′,N′-diethyl Ethylenediamine] | – | – | % Inhibition ([1]; compound concentration 200 μM): 0%; % Inhibition ([1]; compound concentration 400 μM): 48.6%; % Inhibition ([1]; compound concentration 500 μM): 93.8%
5 | CCN(CC)CCNC(=O)c1c(O)c(C)c(C)c2c1CCC(C)(C)O2 [d, N-(3,4-dihydro-6-hydroxy-2,2,7,8-tetramethyl-2H-1-benzopyran-5-carbonyl)-N′,N′-diethyl Ethylenediamine] | 38.4 | 98.1 | –
6 | CCCCCCC1(C)CCc2c(c(C)c(C)c(O)c2C(=O)NCCN(CC)CC)O1 (stereo not shown) [e, N-(3,4-dihydro-2-hexyl-6-hydroxy-2,7,8-trimethyl-2H-1-benzopyran-5-carbonyl)-N′,N′-diethyl Ethylenediamine] | – | 87.4 | –
7 | CCCCCCCCCCCCC1(C)CCc2c(c(C)c(C)c(O)c2C(=O)NCCN(CC)CC)O1 (stereo not shown) [f, N-(3,4-dihydro-2-dodecyl-6-hydroxy-2,7,8-trimethyl-2H-1-benzopyran-5-carbonyl)-N′,N′-diethyl Ethylenediamine] | – | 0 | % Inhibition ([1]; compound concentration 1000 μM): 100%
8 | CCN(CC)CC(=O)Nc1c(O)c(C)c(C)c2c1CCC(C)(C)O2 [g, N-(3,4-dihydro-6-hydroxy-2,2,7,8-tetramethyl-2H-1-benzopyran-5-yl)-(diethylamino)acetamide] | 100 | – | % Inhibition ([1]; compound concentration 5 μM): 72.4%; Incidence of arrhythmias during the reperfusion period ([2]; 30 μM): 8 ± 2.1; Incidence of arrhythmias during the reperfusion period ([2]; 100 μM): 7 ± 2
9 | CCCCCCC1(C)CCc2c(NC(=O)CN(CC)CC)c(O)c(C)c(C)c2O1 (stereo not shown) [h, N-(3,4-dihydro-2-hexyl-6-hydroxy-2,7,8-trimethyl-2H-1-benzopyran-5-yl)-(diethylamino)acetamide] | 100 | – | % Inhibition ([1]; compound concentration 5 μM): 17.4%; Incidence of arrhythmias during the reperfusion period ([2]; 30 μM): 6 ± 3; Incidence of arrhythmias during the reperfusion period ([2]; 100 μM): 6 ± 2.5
10 | CCN(CC)CC(=O)NC1CC(C)(C)Oc2c(C)c(C)c(O)c(C)c21 (stereo not shown) [i, N-(3,4-dihydro-6-hydroxy-2,2,5,7,8-pentamethyl-2H-1-benzopyran-4-yl)-(diethylamino)acetamide] | – | 98.6 | –
11 | CCCCCCC1(C)CC(NC(=O)CN(CC)CC)c2c(C)c(O)c(C)c(C)c2O1 (stereo not shown) [j, N-(3,4-dihydro-2-hexyl-6-hydroxy-2,5,7,8-tetramethyl-2H-1-benzopyran-4-yl)-(diethylamino)acetamide] | – | 96.1 | –
12 | Vitamin E [reference compound] | 21 | – | –
